Assay results reported in patent US11370770B2, “3-arylindazoles as selective MEK4 inhibitors” (priority 2019, dated 2022).

How the values were obtained:
ABL2 = ABL2 (Homo sapiens (Human), UniProt P42684); experiment: KINOMEscan binding assay; details: percent of control
CDC2L1 = CDC2L1 (Homo sapiens (Human), UniProt P21127); experiment: KINOMEscan binding assay; details: percent of control
[1] = biological target: (Homo sapiens (Human), UniProt P49674); experiment: KINOMEscan binding assay; details: CSML1E; percent of control
PRP6 = experiment: KINOMEscan binding assay; details: percent of control
[2] = biological target: (Homo sapiens (Human), UniProt P49761); experiment: KINOMEscan binding assay; details: C;L3; percent of control
PRKCD = PRKCD (Homo sapiens (Human), UniProt Q05655); experiment: KINOMEscan binding assay; details: percent of control
[3] = Dynamic light scattering (compound aggregation); assay type: physicochemical; details: 20, 5 and 1 μM in buffer with and without Triton X-100
MAP3K4 = MAP3K4 (Homo sapiens (Human), UniProt Q9Y6R4); experiment: KINOMEscan binding assay; details: percent of control
VEGFR2 = VEGFR2 (Homo sapiens (Human), UniProt P35968); experiment: KINOMEscan binding assay; details: percent of control
EPHA6 = EPHA6 (Homo sapiens (Human), UniProt Q9UF33); experiment: KINOMEscan binding assay; details: percent of control
MEK3 = MEK3 (Homo sapiens (Human), UniProt P46734); experiment: KINOMEscan binding assay; details: percent of control
MEK2 = MEK2 (Homo sapiens (Human), UniProt P36507); experiment: MEK family profiling ADP-Glo, MEK2; assay type: biochemical; details: Erk2 substrate; 0.6 μM ATP; read-out: IC50 MEK isoform 2
ERK2 = ERK2 (Homo sapiens (Human), UniProt P28482); experiment: KINOMEscan binding assay; details: percent of control
PCTK3 = PCTK3 (Homo sapiens (Human), UniProt Q07002); experiment: KINOMEscan binding assay; details: percent of control
CAMK4 = CAMK4 (Homo sapiens (Human), UniProt Q16566); experiment: KINOMEscan binding assay; details: percent of control
TEC = TEC (Homo sapiens (Human), UniProt P42680); experiment: KINOMEscan binding assay; details: percent of control
HIPK1 = HIPK1 (Homo sapiens (Human), UniProt Q86Z02); experiment: KINOMEscan binding assay; details: percent of control
CSNK1A1L = CSNK1A1L (Homo sapiens (Human), UniProt Q8N752); experiment: KINOMEscan binding assay; details: percent of control
CDK2 = CDK2 (Homo sapiens (Human), UniProt P24941); experiment: KINOMEscan binding assay; details: percent of control
ZAP70 = ZAP70 (Homo sapiens (Human), UniProt P43403); experiment: KINOMEscan binding assay; details: percent of control
SNARK = SNARK (Homo sapiens (Human), UniProt Q9H093); experiment: KINOMEscan binding assay; details: percent of control
[4] = biological target: ABL1(T3151)-non-phosphorylated (Homo sapiens (Human), UniProt P00519, T315I); experiment: KINOMEscan binding assay; details: percent of control
PC3M cells = experiment: Scratch wound assay; assay type: cell-based
MEK1 = MEK1 (Homo sapiens (Human), UniProt Q02750); experiment: KINOMEscan binding assay; details: percent of control

Chain of ZAP70 (P43403 whole entry): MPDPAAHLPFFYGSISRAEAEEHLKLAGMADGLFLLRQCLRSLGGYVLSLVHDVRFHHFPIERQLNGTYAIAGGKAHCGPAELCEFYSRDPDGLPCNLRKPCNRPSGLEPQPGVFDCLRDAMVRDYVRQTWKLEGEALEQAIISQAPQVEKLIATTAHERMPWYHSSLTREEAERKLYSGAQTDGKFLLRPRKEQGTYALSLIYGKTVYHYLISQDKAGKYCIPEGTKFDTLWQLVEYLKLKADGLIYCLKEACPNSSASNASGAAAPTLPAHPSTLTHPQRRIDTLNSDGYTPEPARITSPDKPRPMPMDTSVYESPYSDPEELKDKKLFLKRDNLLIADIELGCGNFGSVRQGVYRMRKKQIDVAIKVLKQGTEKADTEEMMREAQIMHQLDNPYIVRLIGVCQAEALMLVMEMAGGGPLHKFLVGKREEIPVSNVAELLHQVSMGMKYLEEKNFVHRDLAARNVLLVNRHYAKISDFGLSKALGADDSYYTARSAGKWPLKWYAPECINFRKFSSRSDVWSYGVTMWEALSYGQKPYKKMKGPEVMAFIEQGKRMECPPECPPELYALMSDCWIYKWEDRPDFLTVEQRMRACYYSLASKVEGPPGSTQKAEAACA
Chain of CSNK1A1L (Q8N752 whole entry): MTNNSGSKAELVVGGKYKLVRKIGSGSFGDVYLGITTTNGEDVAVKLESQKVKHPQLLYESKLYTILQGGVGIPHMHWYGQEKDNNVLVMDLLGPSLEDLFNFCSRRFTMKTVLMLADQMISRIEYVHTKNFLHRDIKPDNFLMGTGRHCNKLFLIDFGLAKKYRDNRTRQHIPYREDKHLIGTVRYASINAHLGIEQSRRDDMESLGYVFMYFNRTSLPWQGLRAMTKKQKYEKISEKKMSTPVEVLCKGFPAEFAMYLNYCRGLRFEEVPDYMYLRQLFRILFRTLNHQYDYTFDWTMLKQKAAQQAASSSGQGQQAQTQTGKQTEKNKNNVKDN
Chain of PRKCD (Q05655 whole entry): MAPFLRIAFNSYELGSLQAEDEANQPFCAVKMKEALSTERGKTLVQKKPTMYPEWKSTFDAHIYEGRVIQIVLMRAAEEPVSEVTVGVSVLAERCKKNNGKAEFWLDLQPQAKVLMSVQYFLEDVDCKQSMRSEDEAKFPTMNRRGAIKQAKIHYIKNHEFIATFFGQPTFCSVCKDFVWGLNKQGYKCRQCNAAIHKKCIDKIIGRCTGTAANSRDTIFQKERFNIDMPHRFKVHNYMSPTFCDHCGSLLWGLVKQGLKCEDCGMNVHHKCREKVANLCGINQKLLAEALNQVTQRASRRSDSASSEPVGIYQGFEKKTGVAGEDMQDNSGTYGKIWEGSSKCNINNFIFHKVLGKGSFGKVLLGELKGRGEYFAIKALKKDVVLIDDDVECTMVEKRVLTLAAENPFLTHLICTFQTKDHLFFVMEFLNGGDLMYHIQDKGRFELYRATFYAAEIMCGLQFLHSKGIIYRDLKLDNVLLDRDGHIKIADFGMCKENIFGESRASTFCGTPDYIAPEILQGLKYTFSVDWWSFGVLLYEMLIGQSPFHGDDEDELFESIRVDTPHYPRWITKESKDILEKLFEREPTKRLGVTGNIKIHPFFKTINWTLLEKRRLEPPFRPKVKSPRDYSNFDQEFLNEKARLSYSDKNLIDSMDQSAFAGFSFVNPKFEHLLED
Chain of MEK3 (P46734 whole entry, canonical isoform): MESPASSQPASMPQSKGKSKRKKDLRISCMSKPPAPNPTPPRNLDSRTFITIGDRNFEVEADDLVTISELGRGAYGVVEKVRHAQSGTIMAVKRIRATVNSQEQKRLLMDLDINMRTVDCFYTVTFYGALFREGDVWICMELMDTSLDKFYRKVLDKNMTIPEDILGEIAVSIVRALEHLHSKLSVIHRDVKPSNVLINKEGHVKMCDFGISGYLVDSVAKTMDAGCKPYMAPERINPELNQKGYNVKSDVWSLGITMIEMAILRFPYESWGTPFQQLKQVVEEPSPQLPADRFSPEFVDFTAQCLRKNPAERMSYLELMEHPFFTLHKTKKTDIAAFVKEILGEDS
Chain of PCTK3 (Q07002 whole entry): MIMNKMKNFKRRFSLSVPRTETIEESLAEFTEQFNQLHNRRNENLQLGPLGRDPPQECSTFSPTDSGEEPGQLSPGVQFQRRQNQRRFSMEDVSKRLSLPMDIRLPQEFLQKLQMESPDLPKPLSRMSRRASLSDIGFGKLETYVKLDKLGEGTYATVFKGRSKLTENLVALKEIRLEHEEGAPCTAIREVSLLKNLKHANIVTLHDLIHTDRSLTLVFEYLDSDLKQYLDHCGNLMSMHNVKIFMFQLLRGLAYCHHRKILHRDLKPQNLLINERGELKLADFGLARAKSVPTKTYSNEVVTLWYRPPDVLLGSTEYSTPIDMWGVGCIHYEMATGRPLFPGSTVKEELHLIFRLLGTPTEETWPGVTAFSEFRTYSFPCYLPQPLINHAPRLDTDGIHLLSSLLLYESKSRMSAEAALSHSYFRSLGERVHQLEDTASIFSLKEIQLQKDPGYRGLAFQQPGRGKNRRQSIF
Chain of MAP3K4 (Q9Y6R4 whole entry): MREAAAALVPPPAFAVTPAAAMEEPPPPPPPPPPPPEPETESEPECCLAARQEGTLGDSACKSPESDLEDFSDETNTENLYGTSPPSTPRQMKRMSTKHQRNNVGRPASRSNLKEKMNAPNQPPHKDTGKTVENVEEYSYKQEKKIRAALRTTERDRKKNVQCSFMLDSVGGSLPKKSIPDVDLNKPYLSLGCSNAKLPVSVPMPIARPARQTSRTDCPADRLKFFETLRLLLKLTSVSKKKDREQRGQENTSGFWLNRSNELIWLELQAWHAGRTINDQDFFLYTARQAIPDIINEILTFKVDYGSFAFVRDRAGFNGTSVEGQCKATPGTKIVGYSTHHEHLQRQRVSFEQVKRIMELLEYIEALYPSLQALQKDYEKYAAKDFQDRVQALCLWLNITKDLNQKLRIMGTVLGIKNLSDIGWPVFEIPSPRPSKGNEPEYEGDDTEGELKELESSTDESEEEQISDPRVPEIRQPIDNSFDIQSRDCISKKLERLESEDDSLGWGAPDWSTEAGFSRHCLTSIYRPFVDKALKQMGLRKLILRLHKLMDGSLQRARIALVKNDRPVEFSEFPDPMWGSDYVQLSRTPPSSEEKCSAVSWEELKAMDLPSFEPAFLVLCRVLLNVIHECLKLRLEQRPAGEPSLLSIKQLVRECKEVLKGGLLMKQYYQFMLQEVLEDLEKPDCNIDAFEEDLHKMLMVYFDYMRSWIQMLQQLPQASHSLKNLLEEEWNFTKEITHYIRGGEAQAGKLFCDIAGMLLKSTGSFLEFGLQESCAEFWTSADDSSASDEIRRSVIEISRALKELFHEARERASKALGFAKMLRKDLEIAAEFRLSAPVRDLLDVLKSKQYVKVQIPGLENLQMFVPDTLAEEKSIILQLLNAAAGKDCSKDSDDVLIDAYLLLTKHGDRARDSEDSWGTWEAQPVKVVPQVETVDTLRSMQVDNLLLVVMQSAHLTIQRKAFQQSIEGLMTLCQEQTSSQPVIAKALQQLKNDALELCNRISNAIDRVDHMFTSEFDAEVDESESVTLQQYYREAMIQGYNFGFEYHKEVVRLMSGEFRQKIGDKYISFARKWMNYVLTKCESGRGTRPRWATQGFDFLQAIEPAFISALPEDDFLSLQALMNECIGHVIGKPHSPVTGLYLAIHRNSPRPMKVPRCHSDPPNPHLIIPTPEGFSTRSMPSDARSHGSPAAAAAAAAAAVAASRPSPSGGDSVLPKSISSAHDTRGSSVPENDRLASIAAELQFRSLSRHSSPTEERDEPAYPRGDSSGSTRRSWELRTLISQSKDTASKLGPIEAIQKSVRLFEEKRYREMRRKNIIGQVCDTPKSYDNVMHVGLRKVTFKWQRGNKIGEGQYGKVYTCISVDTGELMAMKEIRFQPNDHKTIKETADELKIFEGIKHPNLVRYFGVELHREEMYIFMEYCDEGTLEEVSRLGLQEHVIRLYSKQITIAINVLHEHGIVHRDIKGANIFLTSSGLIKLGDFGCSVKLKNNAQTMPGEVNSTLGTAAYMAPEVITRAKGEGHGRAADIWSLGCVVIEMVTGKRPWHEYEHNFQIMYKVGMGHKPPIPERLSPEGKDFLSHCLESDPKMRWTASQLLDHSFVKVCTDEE
Chain of EPHA6 (Q9UF33 23-1036): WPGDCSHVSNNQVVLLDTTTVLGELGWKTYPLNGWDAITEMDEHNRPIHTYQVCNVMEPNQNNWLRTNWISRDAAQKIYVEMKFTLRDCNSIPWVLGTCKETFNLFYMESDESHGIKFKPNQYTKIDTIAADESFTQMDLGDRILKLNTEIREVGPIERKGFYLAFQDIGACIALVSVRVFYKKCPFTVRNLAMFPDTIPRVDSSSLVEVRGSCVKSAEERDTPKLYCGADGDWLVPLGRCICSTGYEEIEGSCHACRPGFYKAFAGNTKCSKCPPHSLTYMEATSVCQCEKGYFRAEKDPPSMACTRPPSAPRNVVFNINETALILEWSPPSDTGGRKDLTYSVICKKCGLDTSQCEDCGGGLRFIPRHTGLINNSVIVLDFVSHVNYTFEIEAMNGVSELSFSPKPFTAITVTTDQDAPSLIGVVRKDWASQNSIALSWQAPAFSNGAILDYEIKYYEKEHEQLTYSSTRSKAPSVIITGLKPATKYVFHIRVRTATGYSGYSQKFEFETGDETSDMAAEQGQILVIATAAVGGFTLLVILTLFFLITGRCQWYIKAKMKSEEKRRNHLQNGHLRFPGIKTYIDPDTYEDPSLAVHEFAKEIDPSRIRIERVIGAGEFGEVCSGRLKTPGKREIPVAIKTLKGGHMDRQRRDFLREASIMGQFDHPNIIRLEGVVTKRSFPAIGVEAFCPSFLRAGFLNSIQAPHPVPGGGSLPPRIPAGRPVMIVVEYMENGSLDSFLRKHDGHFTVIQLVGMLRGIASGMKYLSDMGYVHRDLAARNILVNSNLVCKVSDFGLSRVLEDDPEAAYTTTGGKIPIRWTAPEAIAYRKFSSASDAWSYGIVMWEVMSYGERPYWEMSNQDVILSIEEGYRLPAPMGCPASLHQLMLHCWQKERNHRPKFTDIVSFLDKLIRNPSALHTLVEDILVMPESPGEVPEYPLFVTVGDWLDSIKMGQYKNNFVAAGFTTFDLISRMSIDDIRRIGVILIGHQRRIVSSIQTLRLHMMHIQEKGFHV

SMILES | % Ctrl @ 10000 nM (ABL2) [% Ctrl] | % Ctrl @ 10000 nM (CDC2L1) [% Ctrl] | % Ctrl @ 10000 nM [1] [% Ctrl] | % Ctrl @ 10000 nM (PRP6) [% Ctrl] | % Ctrl @ 10000 nM [2] [% Ctrl] | % Ctrl @ 10000 nM (PRKCD) [% Ctrl] | % Ctrl @ 10000 nM (MAP3K4) [% Ctrl] | % Ctrl @ 10000 nM (VEGFR2) [% Ctrl] | % Ctrl @ 10000 nM (EPHA6) [% Ctrl] | % Ctrl @ 10000 nM (MEK3) [% Ctrl] | IC50 (MEK2) [µM] | % Ctrl @ 10000 nM (ERK2) [% Ctrl] | % Ctrl @ 10000 nM (PCTK3) [% Ctrl] | % Ctrl @ 10000 nM (CAMK4) [% Ctrl] | % Ctrl @ 10000 nM (TEC) [% Ctrl] | % Ctrl @ 10000 nM (HIPK1) [% Ctrl] | % Ctrl @ 10000 nM (CSNK1A1L) [% Ctrl] | % Ctrl @ 10000 nM (CDK2) [% Ctrl] | % Ctrl @ 10000 nM (ZAP70) [% Ctrl] | % Ctrl @ 10000 nM (SNARK) [% Ctrl] | other results
O=C(O)c1cccc(-c2n[nH]c3ccccc23)c1 [Compound 6a, 3-(1H-indazol-3-yl)benzoic Acid] | 100 | 100 | 88 | 76 | 94 | 100 | 90 | 20 | 97 | 13 | > 27 | 96 | 100 | 100 | 100 | 43 | 87 | 97 | 70 | 68 | compound aggregates by DLS [3]: under no conditions were aggregates observed; % Ctrl @ 10000 nM [4]: 67 % Ctrl
O=C(O)c1ccc(-c2n[nH]c3cc(F)ccc23)cc1 [Compound 6ff, 4-(6-fluoro-2H-indazol-3-yl)benzoic Acid] | 100 | 100 | 100 | 52 | 100 | 100 | 100 | 3.5 | 99 | 1.6 | > 27 | 100 | 100 | 100 | 100 | 48 | 93 | 100 | 73 | 53 | efficacy in wound scratch assay (PC3M cells; 10 μM): no efficacy; efficacy in wound scratch assay (PC3M cells; 25 μM): no efficacy; Percent Difference, DMSO vs. 10 uM inhibitor (PC3M cells; PC3M cells, 10 μM, wound gap 0 vs 20 hrs): −1.65%; Percent Difference, DMSO vs. 25 uM inhibitor (PC3M cells; PC3M cells, 25 μM, wound gap 0 vs 20 hrs): −0.16%; % Ctrl @ 10000 nM (MEK1): 49 % Ctrl; % Ctrl @ 10000 nM [4]: 15 % Ctrl
